Series [1] deals with NFκB-responsive firefly luciferase construct in MDA-MB231 cells. Put plainly: NFκB gene reporter assay. Format: cell-based, human. Here is the method: (§1) Prior to transfection, cells were plated in 96-well plates to 80-90% confluence (100 μL antibiotic free-medium) after 24 h. When used, siRNA were incubated by reverse transfection during cells seeding. […] A mixture of non-inducible firefly luciferase construct and constitutively expressing Renilla luciferase construct (40:1) were used as negative controls. Approximately 24 h post-transfection, the medium was changed and the cells were treated for 12 h with alkylating agents (with/out 6 h pre-treatments). At the end of this period, medium was changed to drug-free fresh medium (to minimize the effect of alkylating toxicity on promoters activity) and cells were kept for an additional 12 h.
(In a reporter assay the amount or activity of a reporter protein is the signal.)

The test system of series [2] is AP1-responsive firefly luciferase construct in MDA-MB231 cells. Put plainly: AP-1 gene reporter assay. Format: cell-based, human. Here is the method:
as §1

In series [3] the test system is MAPKs (ERK1/2, JNK1/2 and p38) and ATF2. Put plainly: Western blot of MAPK phosphorylation. Format: cell-based. As to conditions: 8 h. The procedure:
Western blot. Protein lysates were prepared using RIPA buffer containing 5% sodium deoxycholate, 0.1% SDS, 0.1% Igepal in PBS with a cocktail of protease and phosphatase inhibitors (1 mM PMSF, 1 mM sodium orthovanadate, 1 mM NaF, and 30 μL/mL aprotinin (Sigma-Aldrich, USA)) and clarified by centrifugation. Protein concentration was determined using Bradford Protein Assay Reagent (Biorad, Hercules, Calif.). Equal amounts of protein were resolved using 8-12% SDS polyacrylamide gel, transferred onto nitrocellulose membranes (Hybond-ECL, GE Healthcare Lifesciences, Piscataway, N.J.) and detected using Lumiglo system (Cell Signaling Technology, Calif.) and x-ray films. Primary antibodies included COX-2 (#4842), NRF2 (D1C9), p-JNK1/2 (Thr183/Tyr185, #4671), p-p38 (Thr180/Tyr182, #9216), p-ERK1/2 (Thr202/Tyr204, #9101), BiP/GRP78 (C50B12), IRE1a (14C10), CHOP (L63F7) and PERK (D11A8) from Cell Signaling Technology; p-IRE1a (Ser724; NB100-2323) from Novus Biologicals; GCLC (Ab41463), beta-actin (ab8227) and ATF6 (Ab37149) from Abcam; p-PERK (Thr 981, sc-32577) and ATF3 (C19) were purchased from Santa Cruz. All primary antibodies were used at 1:1000 dilutions and secondary antibodies were 1:3000 in TBS-T with 5% BSA.
On the technique in general: In western blotting, separated proteins are transferred to a membrane and probed.

In a further series the test system is IL8, MMP1, MMP3 and PGE2. Put plainly: ELISA of inflammatory mediators in culture medium. The class given is cell-based, human. Here is the method:
Quantification of MMP1 and MMP3 content in culture medium was assessed using RayBio-MMP3 and RayBio-MMP1 Elisa Kit (RayBiotech, Inc); IL8 was analyzed by Human IL-8 Elisa kit (Pierce Biotechnology). The levels of prostaglandin E2 (PGE2) were determined using the Prostaglandin E2 EIA Kit Monoclonal (Cayman Chemical Company). Culture media were diluted to fit within the standard curves. For conditioned media (CM) preparation for invasion and in vitro angiogenesis experiments, 12-well plated cells were treated with MMS (or MMS plus inhibitors) for 8 h in the presence of 10% FBS, twice washed with HBSS, and incubated with 700 μL drug/serum-free fresh medium for additional 12 h. Thereafter, the conditioned fresh medium was collected and directly used for migration and invasion experiments in order to reduce freezing associated loss of activity.

The test system of a further series is MEFs. Put plainly: Gene expression microarray in MEFs. Format: cell-based, mouse. Particulars: 24 h. Here is the method:
For microarray, 7.5×10^6 Kc167 Drosophila cells or 5×10^6 wild-type MEFs were seeded in T-75 cell culture flask in complete growth medium one day before treatments. On the following day, the medium was replenished with fresh growth medium or medium consisting of MMS at 40 μg/mL. Cells were harvested and pelleted at different times post treatment (0, 1, 8, 24 and 72 h), washed using ice cold phosphate buffered saline (PBS) and the RNA was extracted using the RNeasy kit protocol (Qiagen). RNA integrity was assessed by denaturing formaldehyde agarose gel electrophoresis or by microanalysis (Agilent Bioanalyzer, Santa Clara, Calif.). Microarray service was provided by Expression Analysis Inc., Durham, N.C. Affymetrix GeneChip Drosophila Genome 2.0 Array was used for the experiment performed using Kc167 cells, and Affymetrix GeneChip Mouse Genome 430A 2.0 Array was used for experiment performed using MEFs. The microarray service provided by Expression Analysis Inc., included group comparison between experimental control and MMS treatment and time course analysis based on permutation analysis of differential expression (PADE). For statistical comparison, each experiment was performed in quadruplicate.

Series [4] deals with primary MEFs or breast cancer cells. Put plainly: Cell viability of MEFs and breast cancer cells with kinase inhibitors. The class given is cell-based, mouse, human. Here is the method:
The D. melanogaster embryonic cell line Kc167 was grown in Schneider medium (Invitrogen, Carlsbad, Calif.) supplemented with 10% heat-inactivated (56° C./30 min) fetal bovine serum (FBS), penicillin and streptomycin at 22° C. in a humidified incubator. Primary MEFs were obtained by harvesting 14.5-day C57BL/6J embryos as previously described (Ravi et al., 2009, PLoS Genet 5, e1000527). Briefly, fetal liver and head were removed and the remainder of the embryo was mechanically disaggregated in plating medium. A suspension of single-cells was plated in DMEM (plus 10% FBS, 100 U/mL penicillin and 100 μg/mL streptomycin). MEFs were grown for two passages before freezing aliquots. Aliquots were taken and expanded as needed for each experiment. MDA-MB231, SkBr3 and MCF-7 breast cancer cells lines were obtained from ATCC and grown in DMEM supplemented with 10% inactivated FBS plus antibiotics in a 37° C. humidified incubator at […] atmosphere. Cells were kept and treated in the exponential phase of growing (60-70% confluence). Pharmaceuticals Sorafenib (Santa Cruz Biotechnology), UO126, SP600125, SB239063, celecoxib, buthionine sulfoximine (BSO), cycloheximide (CHX), actinomycin D and BAY117082 (BAY), or antioxidants as N-Acetyl-Cysteine (NAC), glutathione ethyl-ester (GSH-E) and Trolox (all from Sigma-Aldrich, USA) were pre-incubated with cells for 6 to 8 h before treatments with MMS, temozolomide, CDDP (from Sigma-Aldrich, USA) or 4-hydroperoxycyclophosphamide (4-HC; from US Biological). DMSO concentrations were kept to a maximum of 0.1% for all experiments.
Cell viability was assessed using CellTiter-Glo Luminescent Viability assay (Promega) in 384 or 96-well plates white-border clear-bottom plated cells. For caspase-3/7 activity, Caspase-Glo 3/7 Assay kits were used (Promega). For caspase assays, the cells were seeded in 96-well plates and assayed directly after treatments. […] LDH release into culture medium was quantified by Cytotox-96 Non-Radioactive assay kit in agreement with instructions (Promega).

Setting [5] is: MDA-MB231, pre-incubation with inhibitor.

Structures are written as SMILES. “Also recorded” adds a separate entry of the source.

For `COS(C)(=O)=O` [MMS, methyl-methanesulfonate], the “activation of NFκB luciferase reporter” value in series [1] (alkylating agent alone) was “activated both NFκB and AP-1 luciferase reporter constructs”. Further, the “activation of AP-1 luciferase reporter” value in series [2] (alkylating agent alone) is “activated both NFκB and AP-1 luciferase reporter constructs”. In series [3] (MDA-MB231 and MEF), the “phosphorylation of MAPK” value was “increased phosphorylation of the three MAPK”. Further, in the series with IL8, MMP1, MMP3 and PGE2 (MDA-MB231 culture medium), the “production of IL-8, MMP-1 and MMP-3” value is “enhances the production of MMP1, MMP3 and IL8”. Besides, the “prostaglandin E2 (PGE2) in culture medium and COX-2 protein in lysates” value with IL8, MMP1, MMP3 and PGE2 (human cancer cells, 12 h) is “increased levels of prostaglandin E2 (PGE2)”. Moreover, in the series with MEFs, the “up-regulation of CAT expression” value was 2.7 fold.

For the compound `CNC(=O)c1cc(Oc2ccc(NC(=O)Nc3ccc(Cl)c(C(F)(F)F)c3)cc2)ccn1` [sorafenib, 4-[4-[[4-chloro-3-(trifluoromethyl)phenyl]carbamoylamino]phenoxy]-N-methyl-pyridine-2-carboxamide], the “effect on MMS-induced activation of NFκB reporter” value in series [1] (setting [5]) is “strong inhibitory effects on both promoters; also recorded: blocked NFκB and AP-1 promoter activation”. For the same compound, in series [2] (setting [5]), the “effect on MMS-induced activation of AP-1 reporter” value was “strong inhibitory effects on both promoters; also recorded: blocked NFκB and AP-1 promoter activation”. The “effect on MMS-induced MAPK phosphorylation” value in series [3] (MDA-MB231 cells) was “blocked both MMS-induced phosphorylation of ERK1/2 and JNK1/2 as well as basal ERK1/2”. Further, in the series with IL8, MMP1, MMP3 and PGE2 (MDA-MB231, 12 h), the “effect on MMS/alkylation-induced IL8, MMP1, MMP3 and PGE2 secretion and COX-2” value was “exerted the strongest effect in blocking alkylation-induced IL8, COX-2/PGE2, MMP1 and 3”. The “effect on viability at low concentrations” value in series [4] (1 to 5 μM, presence or absence of alkylating agents) is given as “did not affect MMS/4-HC-induced losses in cell viability”. For the same compound, in series [4] (breast cell lines and MEFs, GSH depletion, aberrant ROS), the “concentration with non-selective cytotoxicity” value was not below 20 µM. In series [4] (higher levels of sorafenib), the “viability at higher levels” value was “non-selective detriment to both cancer cells and MEFs”.
